Assay results from patent US20100167261A1, “PLATELET STABILIZATION” (SIEMENS HEALTHCARE DIAGNOSTICS INC., priority 2006, published 2010).
Like-named read-outs stand apart in the source and are kept apart here.

Assays:
Format in all cases: cell-based
[1] = tested on: platelets; experiment: mean platelet component (MPC) of stored blood samples, ADVIA 2120 Hematology System; settings: for mean platelet component (MPC), Average: Table 1, stored at 22° C.
Method: The ADVIA® 120 Hematology System is an automated analyzer that, in addition to measuring the conventional hematologic indices, also provides some activation-related information about platelets. Macey M G et al., Cytometry 38:250-55 (1999). It measures the intensity of light scattered by platelets at two different cone angles (2-3° and 5-15° and from the paired values computes platelet volume (PV) and platelet component (PC) concentration on a cell-by-cell basis. These values are then averaged to provide the Mean Platelet Component (MPC).
(§1) The samples were subjected to gently agitation, and were stored either at room temperature (22° C.) or at 4° C., and mean platelet component and mean platelet volume values were obtained at the designated time points using the ADVIA® 2120 system.
(§2) Blood from healthy controls were also collected into Vacutainer® K3E 4.5 mL K3EDTA sample collection tubes (Cat. No. 367654, Becton, Dickinson and Company, Franklin Lakes, N.J.) and combined with the remaining STABILE-1 reagents (citrate-phosphate-dextrose, wortmanin, tyrphostin) to yield the prescribed concentrations. These samples were stored either at room temperature (22° C.) or at 4° C., and mean platelet component values were obtained at the designated time points using the ADVIA® 2120 system.
(§3) Blood from healthy controls were also collected into Vacutainer® K3E 4.5 mL K3EDTA sample collection tubes (Cat. No. 367654, Becton, Dickinson and Company, Franklin Lakes, N.J.) and combined with the remaining STABILE-1 reagents (citrate-phosphate-dextrose, wortmanin, tyrphostin) to yield the prescribed concentrations. […] Mean platelet component and mean platelet volume were assessed at 30 min, 6 hr, and 24 hr following blood collection/initial combination with storage reagents using the ADVIA® 2120 system (Bayer AG, Leverkusen, Germany). Flow cytometry techniques were used to identify platelet activation proteins, and the impact of these strategies on ultrastructural morphology of platelets was morphometrically evaluated using electron microscopy (EM). The values obtained at t=0+30 (i.e., 30 min after blood collection and the initial combination with the storage reagents) were designated as baseline values to which values observed at t=6 hr and t=24 hr were compared.
(§4) Blood from healthy controls were carefully collected, and mean platelet component was assessed upon combination of blood with the respective storage reagents, using the ADVIA® 2120 system (Bayer AG, Leverkusen, Germany), and again at 1 hr, 3 hr, 6 hr, and 24 hr following the initial combination with storage reagents. All samples were stored at room temperature (22° C.).
as §4, with “Experiments were conducted in order to assess the effect of varying the concentration of the citrate-phosphate-dextrose component in the STABILE-1 storage medium on the mean platelet component. Blood” for “Blood”

[2] = tested on: platelets; settings: for MPV, increase in % vs 30 min baseline: n = 8; for mean platelet volume (MPV), Average: Table 4, stored at 22° C.
Method: as §1
as §2, with “volume was assessed” for “values were obtained”
as §3, with “(EM).” for “(EM). The values obtained at t=0+30 (i.e., 30 min after blood collection and the initial combination with the storage reagents) were designated as baseline values to which values observed at t=6 hr and t=24 hr were compared.”

[3] = tested on: P-selectin (also known as CD62P); experiment: P-selectin expression of stored platelets, flow cytometry; settings: 22° C., n = 8
Method: as §3

[4] = tested on: platelets; experiment: morphometric evaluation of α-granules per platelet and platelet morphology, electron microscopy
Method: as §3

[5] = tested on: platelets; experiment: morphometric evaluation of dense bodies per platelet, electron microscopy whole mounts; settings: * = statistically significant at the 95% confidence level
Description: In accordance with published methods, platelet whole mounts were viewed “by transparence”, i.e., while supported on polyvinal formal resin, and dense bodies were counted.
The plot depicts mean values with 95% LSD intervals.

O=C(O)CN(CCN(CC(=O)O)CC(=O)O)CC(=O)O [EDTA, Ethylenediaminetetraacetic acid]
MPC ([1]; 30 min (baseline), 22° C., n = 8): 259 ± 6.6 g/L | MPC, reduction in % vs 30 min baseline ([1]; 6 hours, 22° C., n = 8): −9% | MPC, reduction in % vs 30 min baseline ([1]; 24 hours, 22° C., n = 8): −21% | mean platelet component (MPC), Average ([1]; 0 min, n 12): 260.83 | mean platelet component (MPC), Average ([1]; 30 min, n 15): 258.07 | mean platelet component (MPC), Average ([1]; 1 h, n 15): 252.00 | mean platelet component (MPC), Average ([1]; 3 h, n 15): 239.07 | mean platelet component (MPC), Average ([1]; 6 h, n 15): 229.87 | mean platelet component (MPC), Average ([1]; 24 h, n 15): 201.07 | mean platelet component ([1]; Table 8, 0, stored at room temperature (22° C.)): 278 | mean platelet component ([1]; Table 8, 1 hr, stored at room temperature (22° C.)): 273 | mean platelet component ([1]; Table 8, 3 hr, stored at room temperature (22° C.)): 265 | mean platelet component ([1]; Table 8, 6 hr, stored at room temperature (22° C.)): 268 | mean platelet component ([1]; Table 8, 24 hr, stored at room temperature (22° C.)): 233 | mean platelet component ([1]; Table 10, 0, stored at room temperature (22° C.)): 258 | mean platelet component ([1]; Table 10, 1 hr, stored at room temperature (22° C.)): 247 | mean platelet component ([1]; Table 10, 3 hr, stored at room temperature (22° C.)): 235 | mean platelet component ([1]; Table 10, 6 hr, stored at room temperature (22° C.)): 225 | mean platelet component ([1]; Table 10, 24 hr, stored at room temperature (22° C.)): 190 | mean platelet component ([1]; Table 11, 0, stored at room temperature (22° C.)): 288 | mean platelet component ([1]; Table 11, 1 hr, stored at room temperature (22° C.)): 282 | mean platelet component ([1]; Table 11, 3 hr, stored at room temperature (22° C.)): 271 | mean platelet component ([1]; Table 11, 6 hr, stored at room temperature (22° C.)): 269 | mean platelet component ([1]; Table 11, 24 hr, stored at room temperature (22° C.)): 227 | decrease in the mean platelet component ([1]; six hours after initial combination (t=0), storage at 22° C., Tables 1 and 2): ~12% | decrease of MPC values ([1]; t=5.5 hr after baseline measurements, room temperature / 22° C.): 9% | MPV [2]: 8.3 ± 0.2 fL | increase of MPV values ([2]; 5.5 hours after baseline, 22° C.): 10.2% | MPV, increase in % vs 30 min baseline ([2]; 6 hours, 22° C.): +10.2% | MPV, increase in % vs 30 min baseline ([2]; 24 hours, 22° C.): +23% | mean platelet volume (MPV), Average ([2]; 0 min, n 12): 8.36 | mean platelet volume (MPV), Average ([2]; 30 min, n 15): 8.41 | mean platelet volume (MPV), Average ([2]; 1 h, n 15): 8.65 | mean platelet volume (MPV), Average ([2]; 3 h, n 15): 9.22 | mean platelet volume (MPV), Average ([2]; 6 h, n 15): 9.53 | mean platelet volume (MPV), Average ([2]; 24 h, n 15): 10.63 | increase in the mean platelet volume ([2]; six hours after initial combination (t=0), storage at 22° C., Tables 4 and 5): ~12% | P-selectin, % of positive platelets ([3]; 30 min (baseline)): 2.1% | P-selectin, % of positive platelets ([3]; 6 hours): 13.9% | P-selectin, % of positive platelets ([3]; 24 hours): 40.8% | number of α-granules per platelet section ([4]; 6 h): 6.4±2.3 | number of α-granules per platelet section ([4]; 24 h): 3.5±1.4 | number of α-granules per platelet as compared with t=0 ([4]; FIG. 4A, six hours of storage, 22° C.): statistical reduction | number of α-granules per platelet section ([4]; baseline): 12.3±6.07 | Difference, mean number of dense bodies per platelet ([5]; Contrast EDTA 0 hr vs. stored 1 hr): −1.26* | Difference, mean number of dense bodies per platelet ([5]; Contrast EDTA 0 hr vs. stored 24 hr): 2.1* | Difference, mean number of dense bodies per platelet ([5]; Contrast EDTA 1 hr vs. EDTA 6 hr): 1.9*
